Assay results as given in publication PMC12392461, “Beyond Estrogenicity: A Comparative Assessment of Bisphenol A and Its Alternatives in In Vitro Assays Questions Safety of Replacements” (Environmental Science & Technology, 2025).

Tests used:
[1] = Acidity constant (pKa) measurement, Sirius T3 UV-metric, and speciation at pH 7.4; conditions: for Double negative form (pH = 7.40) / Negative form (pH = 7.40) / Neutral form (pH = 7.40) / αneutral % (fraction of neutral species): from experimental pKa; for αneutral % (fraction of neutral species): pH 7.4; for pKa: pKa (Acid)
Protocol: Physicochemical properties provide input parameters for the baseline toxicity model. Acidity constants (pK a) and octanol–water partition constants of the neutral species (K ow) were measured with a Sirius T instrument from Pion Inc. (Sussex, UK) (Text S1.2 and Table S1). A detailed description of the pK a and K ow measurements can be found in literature. , […]
S1.2: pKa and log Kow measurements […]
titrator (Pion Inc., Sussex, U.K.). A detailed description of the experimental procedure is available in the literature.1 In brief, each sample was prepared by mixing 5 µL of a 10 mM dimethyl sulfoxide (DMSO) stock solution with 25 µL of a phosphate buffer solution (14.4 mM […]
A reference vial containing 5 µL of DMSO
(Roth, A994-100 ML) and 25 µL of phosphate buffer was analyzed alongside each sample.
The pKa values were determined using the automated UV-metric pKa protocol within the Sirius T3 Control software (version 2.0.0.0.). Each sample was subjected to three consecutive […]
from 2 to 12 by stepwise addition of 0.5 M HCl or 0.5 M potassium hydroxide while recording […]
UV absorbance. […]
To ensure reproducibility, measurements were conducted on at least two

[2] = biological target: T1, Peroxisome proliferator-activated receptor γ (Homo sapiens, UniProt P37231); assay: cell-based; conditions: for EC10, linear / logEC10 / EC10, linear transformed: PPARγ bioassay, dosing range all; for EC10, linear: linear model; for logEC10: log-logistic model; for EC10, PPARγ (M): 10% of maximum effect of rosiglitazone; for SR-ScorePPARγ: SR-Score, sigma k=1, x=5; for Specificity ratio (SRbaseline) SRPPARγ: against baseline cytotoxicity; for Specificity ratio (SRcytotoxicity) SRPPARγ: against experimental cytotoxicity; for EC10, PPARγ: effect; for log(1/EC10) PPARγ: input of the ToxPi score, values up to 1.00; for Emax: read-out: Emax%PPARγ
T1 sequence (P37231 238-505 limits assumed): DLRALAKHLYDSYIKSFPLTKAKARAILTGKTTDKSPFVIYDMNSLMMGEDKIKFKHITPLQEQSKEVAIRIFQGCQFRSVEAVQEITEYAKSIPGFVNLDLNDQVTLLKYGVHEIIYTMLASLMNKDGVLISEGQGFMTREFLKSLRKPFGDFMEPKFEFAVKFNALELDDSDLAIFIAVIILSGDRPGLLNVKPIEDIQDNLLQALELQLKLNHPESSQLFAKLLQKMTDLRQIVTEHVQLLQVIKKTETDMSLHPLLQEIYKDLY
Description: All bioassay media components and the ERα-UAS-bla GripTite and PPARγ-UAS-bla cells were obtained from Thermo Fisher Scientific (Waltham, MA, USA). AREc32 reporter gene cells based on MCF7 were provided by C. Roland Wolf (Cancer Research UK); AhR CALUX cells (H4L7.5c2 derived from H4IIe) were provided by Michael Denison (UC Davis, USA); and SH-SY5Y cells were purchased from Sigma-Aldrich.
Cell culture conditions and bioassay protocols including response detection are provided in Text S2.1–2.4 and Table S3. − Cell viability was determined from cell confluency using an IncuCyte S3 Live-Cell Analysis System (Sartorius AG, Essen, Germany) before and after exposure, except for SH-SY5Y cells (live–dead staining with Nuclear Green LcS1 and propidium iodide, Abcam, UK). For metabolic activation experiments, cell viability was assessed using the ToxBLAzer DualScreen Kit (Thermo Fisher Scientific) to capture the remaining toxicity in ERα-UAS-bla GripTite after treatment with the aCYP catalyst (details in Text S2.4).
For ARE, the concentration that triggered an induction ratio of 1.5 (ECIR1.5) was used as the benchmark value, as detailed in Text S2.5. IC10 values also served as a threshold for data analysis in all assays; only concentrations below IC10 were considered when deriving EC10 or ECIR1.5.
The maximum efficacy (Emax%) refers to the maximum of the log–logistic concentration–response curve attained by test chemicals compared to the reference chemical’s maximum and was obtained for both ERα and PPARγ. […]
S2: Cell culture and bioassays
S2.1: Cell Culturing Conditions
All suppliers and sources are given in detail in SI-Excel S3. The bioassay media for the different assays were prepared as follows: Assay medium for ER alpha-UAS-bla GripTite (ERα) and […]
2% charcoal-stripped FBS, and 100 U/mL penicillin-streptomycin. […]
S2.2: Cell Seeding and Incubation. For all bioassays, cell suspensions in the respective assay medium were dispensed into each well of 384-well plates using a MultiFlo Dispenser (Biotek, (now Agilent), Winooski, VT, U.S.). After seeding, the plates were incubated at 37° C and 5% CO₂ for […]. The final cell densities and plate types were as follows: Black poly-D-lysine […]
6500 cells/well, ERα: 5000 cells/well. White 384-well plates with a clear bottom (Product No. […]
S2.3: Chemical Dosing and Assay Analysis Procedures.

[3] = second pKa column, experimental, this study
[4] = phosphate buffer with […] KCl, Sirius T3 titrator, experimental, this study

Structure (SMILES)	Double negative form (pH = 7.40) [1] [%]	Negative form (pH = 7.40) [1] [%]	Neutral form (pH = 7.40) [1] [%]	αneutral % (fraction of neutral species) [1] [%]	EC10, linear [2]	logEC10 [2]	pKa (Acid) [1]	pKa [1]	other results
CC1(C)C(O)C(C)(C)C1O (racemic) [r-TMCD, 2,2,4,4-Tetramethyl-1,3-cyclobutanediol (racemate)]	0	0	100	100	no effect	no effect			
O=S(=O)(c1ccc(O)cc1)c1ccccc1O [2,4-BPS, 2,4'-Dihydroxydiphenyl sulfone]	5	52	43	43	no effect	no effect	8.43	7.31	
CC(C)(c1ccc(OCC2CO2)cc1)c1ccc(OCC2CO2)cc1 (stereo not shown) [BADGE, Bisphenol A diglycidyl ether]	0	0	100	100	no effect	no effect			
CC(C)CC(C)(c1ccc(O)cc1)c1ccc(O)cc1 [BP-MIBK, 4,4'-(1,3-Dimethylbutylidene)diphenol]					no effect	no effect			
CC(C)(c1ccc(O)cc1)c1ccc(O)cc1 [BPA, 4,4'-(Propane-2,2-diyl)diphenol, reference compound]	9.99e-6		100	100	no effect	no effect	9.85	8.78	PPARγ activation ([2]; at concentrations up to IC10): did not activate PPARγ
Oc1ccc(C(c2ccc(O)cc2)(C(F)(F)F)C(F)(F)F)cc1 [BPAF, 4,4'-(1,1,1,3,3,3-Hexafluoropropane-2,2-diyl)diphenol]	0.0417	4.47	95		no effect	no effect	8.73	9.43	
CC(c1ccccc1)(c1ccc(O)cc1)c1ccc(O)cc1 [BPAP, 4,4'-(1-Phenylethylidene)bisphenol]	0.00503	2	98		no effect	no effect	9.99	9.1	
CCC(C)(c1ccc(O)cc1)c1ccc(O)cc1 [BPB, 4,4'-(Butane-2,2-diyl)diphenol]	0.000865	0.736	99	99	no effect	no effect	10.33	9.53	
CC(c1ccc(O)cc1)c1ccc(O)cc1 [BPE, 4,4′-Ethylidenbisphenol]	0.00576	2.24	98	98	no effect	no effect	9.99	9.04	
Oc1ccc(Cc2ccc(O)cc2)cc1 [BPF, Bis(4-hydroxyphenyl)methane]	0.000993	0.736	99	99	no effect	no effect	10.27	9.53	
CC(C)c1cc(C(C)(C)c2ccc(O)c(C(C)C)c2)ccc1O [BPG, 2,2-Bis(4-hydroxy-3-isopropylphenyl)propane]	4.07e-6	0.0363	100	100	1.61E-07	-6.93			pKa [1, 3]: 11.3; pKa ([1]; experimental, this study): 10.8; EC10, PPARγ (M) [2]: 1.17 × 10^–7 M; EC10, linear transformed [2]: 1.17E-07; SR-ScorePPARγ [2]: 1.00; Specificity ratio (SRbaseline) SRPPARγ [2]: 12.28; Specificity ratio (SRcytotoxicity) SRPPARγ [2]: 54.95; EC10, PPARγ [2]: 117 nM; log(1/EC10) PPARγ [2]: 0.98; Emax [2]: 22%
CC(C)(c1ccc(O)c(-c2ccccc2)c1)c1ccc(O)c(-c2ccccc2)c1 [BPPH, 2,2-Bis(2-hydroxy-5-biphenylyl)propane]	0.000533	0.825	99	99	9.24E-07	-6.26			pKa [1, 3]: 10.6; pKa ([1]; experimental, this study): 9.48; EC10, PPARγ (M) [2]: 5.55 × 10^–7 M; EC10, linear transformed [2]: 5.55E-07; SR-ScorePPARγ [2]: 1.00; Specificity ratio (SRbaseline) SRPPARγ [2]: 1.90; Specificity ratio (SRcytotoxicity) SRPPARγ [2]: 12.47; EC10, PPARγ [2]: 555 nM; log(1/EC10) PPARγ [2]: 0.88; Emax [2]: 12%
C=CCOc1ccc(S(=O)(=O)c2ccc(O)cc2)cc1 [BPS-MAE, 4-[[4-(Allyloxy)phenyl]sulfonyl]phenol]					6.41E-07	-6.25			EC10, PPARγ (M) [2]: 5.57 × 10^–7 M; EC10, linear transformed [2]: 5.57E-07; SR-ScorePPARγ [2]: 1.00; EC10, PPARγ [2]: 557 nM; log(1/EC10) PPARγ [2]: 0.88; Emax [2]: 22%
Oc1ccc(C2(c3ccc(O)cc3)CCCCC2)cc1 [BPZ, 1,1'-Bis(4-hydroxyphenyl)cyclohexane]	0.00202	1.11	99	99					pKa [1, 3]: 10.1; pKa ([1]; experimental, this study): 9.35
CC(C)(c1cc(Br)c(O)c(Br)c1)c1cc(Br)c(O)c(Br)c1 [TBBPA, 3,3',5,5'-Tetrabromobisphenol A]	56	39	4.58	5					pKa ([1]; phosphate buffer with […] KCl, Sirius T3 titrator, second pKa column, experimental, this study): 7.24; pKa [1, 4]: 6.47
Cc1cc(Cc2cc(C)c(O)c(C)c2)cc(C)c1O [TMBPF, Bis(3,5-dimethyl-4-hydroxyphenyl)methane]					5.55E-07	-6.48			EC10, PPARγ (M) [2]: 3.29 × 10^–7 M; EC10, linear transformed [2]: 3.29E-07; SR-ScorePPARγ [2]: 0.98; Specificity ratio (SRbaseline) SRPPARγ [2]: 13.64; Specificity ratio (SRcytotoxicity) SRPPARγ [2]: 8.97; EC10, PPARγ [2]: 329 nM; log(1/EC10) PPARγ [2]: 0.92; Emax [2]: 18%
CC1(C)[C@H](O)C(C)(C)[C@H]1O [Trans TMCD]					no effect	no effect			
CC1(C)[C@H](O)C(C)(C)[C@H]1O [t-TMCD, trans-2,2,4,4-Tetramethyl-1,3-cyclobutanediol]		1e-6	100	100					pKa [1, 4]: 15.4
